Patent US7009052B2, “Sulfonamide derivatives” (Warner Lambert Company LLC, priority 2003, dated 2006)

Molecular target: T1, androgen receptor (Homo sapiens, UniProt P10275)
T1 sequence (P10275 1-920 Q868H): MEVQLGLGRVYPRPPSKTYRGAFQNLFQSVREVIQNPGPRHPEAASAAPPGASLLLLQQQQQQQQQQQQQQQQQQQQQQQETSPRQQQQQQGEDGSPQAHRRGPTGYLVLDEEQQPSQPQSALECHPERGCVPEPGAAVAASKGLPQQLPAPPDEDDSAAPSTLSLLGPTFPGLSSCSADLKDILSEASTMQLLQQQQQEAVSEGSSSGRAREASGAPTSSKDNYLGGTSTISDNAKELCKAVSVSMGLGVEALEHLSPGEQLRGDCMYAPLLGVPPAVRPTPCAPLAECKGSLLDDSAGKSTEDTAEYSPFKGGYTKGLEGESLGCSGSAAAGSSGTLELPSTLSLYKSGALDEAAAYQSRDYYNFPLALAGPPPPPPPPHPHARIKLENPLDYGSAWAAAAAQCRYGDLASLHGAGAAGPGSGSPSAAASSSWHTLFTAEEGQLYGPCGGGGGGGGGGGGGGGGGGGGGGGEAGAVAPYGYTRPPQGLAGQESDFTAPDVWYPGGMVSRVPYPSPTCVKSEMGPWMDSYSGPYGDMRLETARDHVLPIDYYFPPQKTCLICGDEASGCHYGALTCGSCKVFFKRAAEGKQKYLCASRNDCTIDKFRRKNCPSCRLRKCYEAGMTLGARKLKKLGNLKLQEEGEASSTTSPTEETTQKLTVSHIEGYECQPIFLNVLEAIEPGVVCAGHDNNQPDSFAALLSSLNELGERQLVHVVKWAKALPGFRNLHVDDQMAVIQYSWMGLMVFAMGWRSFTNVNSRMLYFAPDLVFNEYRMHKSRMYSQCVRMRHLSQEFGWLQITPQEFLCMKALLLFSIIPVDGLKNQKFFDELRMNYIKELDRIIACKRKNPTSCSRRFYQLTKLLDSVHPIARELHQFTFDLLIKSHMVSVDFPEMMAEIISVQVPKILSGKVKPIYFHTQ
Experiment: AR Antagonist Cell Assay (MMTV-luciferase reporter, DHT-induced)
Format: cell-based
Details: MDA-MB453-MMTV clone 54-19 cells, 100 pM DHT, 17 hr
Experimental: The compounds ability to antagonize the effects of androgen on the androgen receptor were determined in the protocol described immediately below.
Experimental Procedure for AR Antagonist Cell Assay
Cell line: MDA-MB453-MMTV clone 54-19. This cell line is a stable transfected cell line with MDA-MB453 cell background (human breast tumor cell expressing high level of androgen receptor). A MMTV minimal promoter containing ARE was first cloned in front of a firefly luciferase reporter gene. Then the cascade was cloned into transfection vector pUV120puro. Electroporation method was used for transfecting MDA-MB-453 cell. Puromycin resistant stable cell line was selected.
Cell Culture Media and Reagents:
Culture medium: DMEM (high glucose, Gibco cat #: 11960-044), 10% FBS, and 1% L-glutamine
Plating medium: DMEM (phenol red free), 10% charcoal treated HyClone serum, 1% L-glutamine
Assay medium: DMEM (phenol red free), 1% charcoal treated HyClone serum, 1% L-glutamine, and 1% penicillin/streptomycin
3× luciferase buffer: 2% beta-mercaptoethanol, 0.6% ATP, 0.0135% luciferine in cell lysis buffer
• 1. Cells are maintained in culture medium, splitting cells when they reach 80–90% confluence • 2. To test compounds, 10,000 cells/well are plated to opaque 96 cell culture plate in 100 ul/well plating medium, culture for overnight at 37° C. in cell culture incubator • 3. Carefully remove plating medium, then add 80 ul/well of pre-warmed assay medium, add 10 ul/well testing compound (final concentration at 10 uM or 1 uM), incubate at 37° C. for 30 minutes • 4. Add 10 ul/well freshly prepared DHT (final concentration at 100 pM) to each well, incubate at 37° C. for 17 hr (overnight) • 5. Add 50 ul/well 3× luciferase buffer, incubate at room temperature for 5 minutes, then count on Luminometer The fold induction over background by 100 pM DHT in the absence of testing compounds is standardized as 100% and experimental result is expressed as percentage of inhibition by testing compounds. TABLE3

Row | IC50 [nM] | SMILES
1 | 1040 | CN(CCC#N)S(=O)(=O)c1ccc2[nH]c(=O)cc(C(F)(F)F)c2c1 [Example 77, 2-Oxo-4-trifluoromethyl-1,2-dihydroquinoline-6-sulfonic acid(2-cyanoethyl)methylamide]
2 | 1940 | O=c1cc(C(F)(F)F)c2cc(S(=O)(=O)NCc3ccccc3Sc3ccccc3CO)ccc2[nH]1 [Example 155, 2-Oxo-4-trifluoromethyl-1,2-dihydroquinoline-6-sulfonic acid2-(2-hydroxymethyl-phenylsulfanyl)benzylamide]
3 | 6350 | CCN(Cc1ccccc1)S(=O)(=O)c1ccc2c(c1)c(C(F)(F)F)cc(=O)n2C [Example 10, 1-Methyl-2-oxo-4-trifluoromethyl-1,2-dihydroquinoline-6-sulfonicacid benzylethylamide]
4 | 130 | CCc1cccc(NS(=O)(=O)c2ccc3[nH]c(=O)cc(C(F)(F)F)c3c2)c1 [Example 88, 2-Oxo-4-trifluoromethyl-1,2-dihydroquinoline-6-sulfonic acid(3-ethylphenyl)amide]
5 | 750 | O=c1cc(C(F)(F)F)c2cc(S(=O)(=O)NCc3ccccc3C(F)(F)F)ccc2[nH]1 [Example 153, 2-Oxo-4-trifluoromethyl-1,2-dihydroquinoline-6-sulfonic acid2-trifluoromethylbenzylamide]
6 | > 10000 | COc1ccccc1NS(=O)(=O)c1ccc2[nH]c(=O)cc(C(F)(F)F)c2c1 [Example 92, 2-Oxo-4-trifluoromethyl-1,2-dihydroquinoline-6-sulfonic acid(2-methoxyphenyl)amide]
7 | 580 | CCOc1ccccc1CNS(=O)(=O)c1ccc2[nH]c(=O)cc(C(F)(F)F)c2c1 [Example 136, 2-Oxo-4-trifluoromethyl-1,2-dihydroquinoline-6-sulfonic acid2-ethoxybenzylamide]
8 | 7080 | O=c1cc(C(F)(F)F)c2cc(S(=O)(=O)Nc3ccc(F)cc3)ccc2[nH]1 [Example 84, 2-Oxo-4-trifluoromethyl-1,2-dihydroquinoline-6-sulfonic acid(4-fluorophenyl)amide]
9 | 1030 | O=c1cc(C(F)(F)F)c2cc(S(=O)(=O)NC3CCc4ccccc43)ccc2[nH]1 (stereo not shown) [Example 130, 2-Oxo-4-trifluoromethyl-1,2-dihydroquinoline-6-sulfonic acidindan-1-ylamide]
10 | > 10000 | O=c1cc(C(F)(F)F)c2cc(S(=O)(=O)NCc3cccc(Cl)c3)ccc2[nH]1 [Example 138, 2-Oxo-4-trifluoromethyl-1,2-dihydroquinoline-6-sulfonic acid3-chlorobenzylamide]
11 | 390 | CCN(Cc1ccccc1)S(=O)(=O)c1ccc2[nH]c(=O)cc(C(F)(F)F)c2c1 [Example 79, 2-Oxo-4-trifluoromethyl-1,2-dihydroquinoline-6-suifonic acidbenzylethylamide]

The next lines start with the compound.

Row | SMILES | IC50 [nM]
12 | Cc1ccc(-c2ccccc2)cc1NS(=O)(=O)c1ccc2c(c1)c(C(F)(F)F)cc(=O)n2C [Example 27, 1-Methyl-2-oxo-4-trifluoromethyl-1,2-dihydroquinoline-6-sulfonicacid (4-methylbipheny-3-yl)amide] | 840
13 | Cn1c(=O)cc(C(F)(F)F)c2cc(S(=O)(=O)NCCc3c[nH]c4ccccc34)ccc21 [Example 60, 1-Methyl-2-oxo-4-trifluoromethyl-1,2-dihydroquinoline-6-sulfonicacid [2-(1H-indol-3-yl)ethyl]amide] | 6330
14 | O=c1cc(C(F)(F)F)c2cc(S(=O)(=O)NCC3CCCCC3)ccc2[nH]1 [Example 123, 2-Oxo-4-trifluoromethyl-1,2-dihydroquinoline-6-sulfonic acidcyclohexylmethylamide] | 8510
15 | COc1ccccc1CCNS(=O)(=O)c1ccc2c(c1)c(C(F)(F)F)cc(=O)n2C [Example 58, 1-Methyl-2-oxo-4-trifluoromethyl-1,2-dihydroquinoline-6-sulfonicacid [2-(2-methoxyphenyl)ethyl]amide] | 5400
16 | Cn1c(=O)cc(C(F)(F)F)c2cc(S(=O)(=O)Nc3cccc4c3CCC4)ccc21 [Example 23, 1-Methyl-2-oxo-4-trifluoromethyl-1,2-dihydroquinoline-6-sulfonicacid indan-4-ylamide] | > 10000
17 | C#Cc1ccc(NS(=O)(=O)c2ccc3c(c2)c(C(F)(F)F)cc(=O)n3C)cc1 [Example 15, 1-Methyl-2-oxo-4-trifluoromethyl-1,2-dihydroquinoline-6-sulfonicacid (4-ethynylphenyl)amide] | 1170
18 | Cn1c(=O)cc(C(F)(F)F)c2cc(S(=O)(=O)Nc3cc4ccccc4cn3)ccc21 [Example 32, 1-Methyl-2-oxo-4-trifluoromethyl-1,2-dihydroquinoline-6-sulfonicacid isoquinolin-3-ylamide] | > 10000
19 | Cn1c(=O)cc(C(F)(F)F)c2cc(S(=O)(=O)Nc3cccc4cccnc34)ccc21 [Example 34, 1-Methyl-2-oxo-4-trifluoromethyl-1,2-dihydroquinoline-6-sulfonicacid quinolin-8-ylamide] | > 10000
20 | CC(C)CCNS(=O)(=O)c1ccc2[nH]c(=O)cc(C(F)(F)F)c2c1 [Example 121, 2-Oxo-4-trifluoromethyl-1,2-dihydroquinoline-6-sulfonic acid(3-methylbutyl)amide] | 280
21 | O=c1cc(C(F)(F)F)c2cc(S(=O)(=O)NCCSCc3c(F)cccc3Cl)ccc2[nH]1 [Example 154, 2-Oxo-4-trifluoromethyl-1,2-dihydroquinoline-6-sulfonic acid[2-(2-chloro-6-fluorobenzylsulfanyl)ethyl]amide] | 2180
22 | Cn1c(=O)cc(C(F)(F)F)c2cc(S(=O)(=O)NCCSC(C)(C)C)ccc21 [Example 61, 1-Methyl-2-oxo-4-trifluoromethyl-1,2-dihydroquinoline-6-sulfonicacid (2-tert-butylsulfanylethyl)amide] | 1530
23 | O=c1cc(C(F)(F)F)c2cc(S(=O)(=O)Nc3ccc4c(c3)OCO4)ccc2[nH]1 [Example 98, 2-Oxo-4-trifluoromethyl-1,2-dihydroquinoline-6-sulfonic acidbenzo[1,3]dioxol-5-ylamide] | > 10000
24 | CCOC(=O)Cc1ccc(NS(=O)(=O)c2ccc3c(c2)c(C(F)(F)F)cc(=O)n3C)cc1 [Example 42, [4-(1-Methyl-2-oxo-4-trifluoromethyl-1,2-dihydroquinoline-6-sulfonylamino)phenyl]aceticacid ethyl ester] | > 10000
25 | Cc1ccc(CNS(=O)(=O)c2ccc3c(c2)c(C(F)(F)F)cc(=O)n3C)cc1 [Example 51, 1-Methyl-2-oxo-4-trifluoromethyl-1,2-dihydroquinoline-6-sulfonicacid 4-methylbenzylamide] | > 10000
26 | Cn1c(=O)cc(C(F)(F)F)c2cc(S(=O)(=O)Nc3ccc(-n4ccc(C(F)(F)F)n4)cc3)ccc21 [Example 47, 1-Methyl-2-oxo-4-trifluoromethyl-1,2-dihydroquinoline-6-sulfonicacid [4-(3-trifluoromethylpyrazol-1-yl)phenyl]amide] | 2960
27 | COc1cccc(NS(=O)(=O)c2ccc3c(c2)c(C(F)(F)F)cc(=O)n3C)c1 [Example 48, 1-Methyl-2-oxo-4-trifluoromethyl-1,2-dihydroquinoline-6-sulfonicacid (3-methoxyphenyl)amide] | 1130
28 | Cn1c(=O)cc(C(F)(F)F)c2cc(S(=O)(=O)NCCC3=CCCCC3)ccc21 [Example 53, 1-Methyl-2-oxo-4-trifluoromethyl-1,2-dihydroquinoline-6-sulfonicacid (2-cyclohex-1-enylethyl)amide] | 1840
